Data taken from patent publication US6391873B1, “Imidazodiazepine derivative” (priority 1999, dated 2002).

Tests used:
mice [1] = assay: tolerance of the anxiolytic effect in mice after chronic treatment
mice [2] = assay: withdrawal signs in chronically treated mice challenged with a benzodiazepine receptor antagonist; details: chronically treated mice challenged with benzodiazepine receptor antagonist (e.g., sarmazenil)
mice [3] = assay: ethanol interaction in mice
benzodiazepine receptors = assay: 3H-flumazenil in vitro binding assay using homogenized rat cortex; details: inhibition of binding of tritiated flumazenil
Procedure: The preclinical pharmacological profile of the compound of the present invention for treatment of anxiety disorders, and/or treatment of convulsions and/or non-sedative treatment of sleep disorders involves no, or only minimal motor impairment, in a standard test of motor performance in animals (e.g. rotarod test in mice with motor function evaluated in the same animals at different time points up to 1 hour after intravenous injection).
The affinity of the compound of the invention to the central benzodiazepine receptors was established in vitro according to the methods described in Nature 294, 763-765 (1981) and J. Neurochemistry 37, 714-722 (1981). According to these methods, the inhibition of the binding of tritiated flumazenil to the specific benzodiazepine receptors in the cortex of rats by the respective test substance is determined. The affinity was calculated as pKi (for background information on pKi see: Cheng, Y. and W. H. Prusoff, Relationship between the inhibition constant (Ki) and the concentration of inhibitor which causes 50 percent inhibition (IC50) of an enzymatic reaction. Biochem. Pharmac. 22: 3099-3108, 1973) as the measure of the specific binding of tritiated flumazenil to specific benzodiazepine receptors in the cortex of rat.

mice [4] = assay: fatalities after i.v. administration in mice (rotarod test); format: in vivo, mouse; details: up to 100 mg/kg i.v.
animals = assay: anticonvulsant effects in animals; format: in vivo; details: low doses
mice [5] = assay: rotating rod test (rotarod test), motor impairment; format: in vivo, mouse; details: for ED50 for a rotarod deficit: consistently at different time points up to 1 hour after intravenous injection
Procedure: The motor impairing properties of the compound of the invention can be determined, for example, in the rotating rod test (rotarod test). […] These mice were housed in Macrolon® type I cages for one or more days following arrival in the laboratory colony (12:12 hour light-dark cycle). They have free access to a standard rodent diet (Kliba Mühlen, Kaiseraugst, Switzerland) and tap water in the home cage up to testing. They are brought into the test laboratory at least 30 min before the test which was done during the light portion of the day-night cycle. In the rotating rod test the animals are placed on a horizontally arranged, smooth metal rod having a diameter of 3 cm, which is rotated at 2 revolutions per min. Initially, the animals are given the opportunity of familiarizing themselves with the test situation for at least 30 sec. Subsequently, those animals which succeed in remaining on the rod for at least 1 min are selected for use in the test. These selected animals are then given the test preparations intravenously in different dosages. At various points in time post-injection, it is then determined whether the animals are able to remain wallking on the rod for a minimum period (minimum period of 10 sec at time points 15 sec. 30 sec. 1 min and 2 min; minimum period of 1 min at time points 5 min, 15 min, 30 min, 60 min). The dosage at which 50% of the animals are capable of remaining on the rod (i.e., ED50) was determined at each of these time points.

rats [6] = assay: fatalities after i.v. administration in rats; format: in vivo; details: 100 mg/kg i.v.
rats [7] = assay: cognitive impairment in rats
mice [8] = assay: mouse operant conflict model of anxiety; details: oral bolus circa 30 min prior to conflict test; punished responding
[9] = tested on: cytochrome P450 isoenzymes; assay: inhibition of cytochrome P450 isoenzymes

## CN(C)Cc1nc(-c2ncn3c2CN(C)C(=O)c2c(Cl)cccc2-3)no1 [compound of the invention, 7-Chloro-3-(5-dimethylaminomethyl-[1,2,4]oxadiazol-3-yl)-5-methyl-4,5-dihydro-imidazo[1,5-a][1,4]benzodiazepin-6-one]
Mice [1]
  reduction (so-called tolerance) of the anxiolytic effect: minimal reduction
Mice [2]
  withdrawal signs: minimal withdrawal signs
Mice [3]
  ethanol interaction: low ethanol interaction
Benzodiazepine receptors
  Affinity to benzodiazepine receptors: 9.1
Mice [4]
  fatalities: without fatalities occurring
animals
  anticonvulsant effects: show anticonvulsant effects
Mice [5]; 15 sec after administration
  Rotating rod test ED50: >10 mg/kg i.v.
Mice [5]; 20 sec after administration
  Rotating rod test ED50: >10 mg/kg i.v.
Mice [5]; 60 sec after administration
  Rotating rod test ED50: >10 mg/kg i.v.
Mice [5]; 2 min after administration
  Rotating rod test ED50: >10 mg/kg i.v.
Mice [5]; 5 min after administration
  Rotating rod test ED50: >10 mg/kg i.v.
Mice [5]; 15 min after administration
  Rotating rod test ED50: >10 mg/kg i.v.
Mice [5]; 30 min after administration
  Rotating rod test ED50: >10 mg/kg i.v.
Mice [5]; 60 min after administration
  Rotating rod test ED50: >10 mg/kg i.v.
Mice [5]
  ED50 for a rotarod deficit: > 10 mg/kg i.v.
Mice [5]; listed as compound of the present invention
  ED50 for a rotarod deficit: greater than 10 mg/kg i.v.
Rats [6]
  fatalities: without fatalities occurring
Rats [7]
  cognitive impairment: minimal cognitive impairment
Mice [8]
  minimum effective dose (statistically significant anxiolytic-like effect): 3 mg/kg p.o.
[9]
  inhibition of cytochrome P450 isoenzymes: minimal or no inhibition
